US20220249637A1, “COMBINATION THERAPY OF A CELL-MEDIATED CYTOTOXIC THERAPY AND AN INHIBITOR OF A PROSURVIVAL BCL2 FAMILY PROTEIN” (Juno Therapeutics, Inc., priority 2019, published 2022)

What was measured:
[1] = system: Granta-519; assay: NucLight Red target cell killing by live cell imaging; assay type: cell-based
Experimental: Anti-CD19 CAR-expressing T cell compositions were generated as described in Example 1 and were cultured with a CD19-expressing lymphoma target cell lines, either SUDHL6, WSU-DLCL2, or Granta-519 at an E:T ratio of 2.5:1. The co-cultures were carried out in the presence of 20 nM or 200 nM of the exemplary BCL2 inhibitor, venetoclax. As controls, target tumor cell lines were incubated only in the presence of the inhibitor or the anti-CD19 CAR T cells. Target cells were labeled with NucLight Red (NLR) to permit tracking of target cells by microscopy and target cell killing was monitored by the loss of fluorescent signal over time, substantially as described in Example 1.
In a further experiment, anti-CD19 CAR-expressing T cell compositions, generated as described above, were cultured with the Granta-519 CD19-expressing lymphoma target cell line. Granta-519 cells were engineered with a lentiviral reagent to express NucLight Red (NLR) to permit tracking of target cells by microscopy. […] The anti-CD19 CAR T cells were provided in the co-cultures at the suboptimal dose, and the co-cultures were carried out in the presence of 0, 0.01, 0.1, or 1 μM of the exemplary BCL2 inhibitor venetoclax. For comparison, target tumor cell lines were incubated only in the presence of 0, 0.01, 0.1, or 1 μM of the inhibitor. Red target cell counts were enumerated by live cell imaging and tracked over time.

[2] = system: RL spheroids; assay: RL spheroid 3D tumor model, co-culture for 9 days; assay type: cell-based
Experimental: The resistance of the RL cell line to CD19-directed CAR T cells was further assessed in a 3D tumor model. An anti-CD19 CAR-expressing T cell composition was generated from a human adult donor, substantially as described in Example 1. RL tumor cells engineered to express NLR were allowed to form spheroids for 72 hours, then co-cultured for 9 days with the anti-CD19 CAR T cells at an E:T ratio of 1:1. A subtherapeutic concentration of the exemplary BCL2 inhibitor venetoclax (0.1 μM) was added at the beginning of co-culture, and tumor volume was measured over time (FIG. 5B).
In a related experiment, spheroids were generated from CD19-expressing RL cells as described, and co-cultured for 9 days with anti-CD19 CAR T cells and increasing concentrations of venetoclax (0.01 μM, 0.1 μM, or 1.0 μM), or with only corresponding concentrations of venetoclax.

In the case of CC1(C)CCC(CN2CCN(c3ccc(C(=O)NS(=O)(=O)c4ccc(NCC5CCOCC5)c([N+](=O)[O-])c4)c(Oc4cnc5[nH]ccc5c4)c3)CC2)=C(c2ccc(Cl)cc2)C1 [venetoclax], the “CD19-directed CAR T cell killing” value ([1]; co-culture with anti-CD19 CAR T cells E:T 2.5:1, 20 or 200 nM venetoclax) is reported as “enhanced”, the target cell number ([1]; venetoclax alone, 0.01 μM) is reported as “did not substantially impact target cell number” and the tumor cell killing ([1]; venetoclax alone, 20 nM or 200 nM) is reported as “did not substantially impact tumor cell killing”. For the same molecule, the target cell number ([1]; venetoclax alone, 0.1 μM and 1.0 μM) was “modest effect on target cell number”, the target cell number ([1]; with anti-CD19 CAR T cells E:T 1:1, 0.01 μM venetoclax, compared to 0.01 μM inhibitor only) was “demonstrated a decrease in the number of target cells” and the “target cell number / CAR T cell killing” value ([1]; with anti-CD19 CAR T cells E:T 1:1, 0.1 μM and 1.0 μM venetoclax) was “even greater CD19-directed CAR T cell killing”. The “apoptosis of tumor cells” value ([2]; combination of venetoclax and anti-CD19 CAR T cells (data not shown)) was “induce apoptosis of tumor cells”, the tumor size ([2]; day 9, venetoclax 0.01, 0.1 or 1.0 μM) was “larger concentrations of venetoclax resulted in larger decreases in tumor size” and the “size of RL spheroids” value ([2]; day 9, with anti-CD19 CAR T cells, venetoclax 0.01, 0.1 or 1.0 μM, compared to venetoclax only) was “decreased substantially more”. The tumor volume ([2]; with anti-CD19 CAR T cells E:T 1:1, 0.1 μM venetoclax, 9 days) was “resulted in decreased tumor volume”.
